This passage reports Ki, bioavailability and Reduction results from ChEMBL document CHEMBL1147535, “Biaryl amide glucagon receptor antagonists” (Bioorg Med Chem Lett, 2004).

Structures are written as SMILES.

Data set [1] deals with Glucagon receptor (Homo sapiens, UniProt P47871). In words: In vitro binding affinity against human glucagon receptor (h-GlucR) was determined.
The target in data set [2] is Adenylate cyclase. In words: In vitro inhibitory activity against glucagon induced human adenylate cyclase. The data set is classed as protein assay.
Data set [3] in a line: Oral bioavailability. The data set is classed as ADME, organism-based. The note with it: eutheria, in vivo.
Data set [4] concerns Rattus norvegicus. In words: Percent reduction of glucagon induced glucose excursion by the compound after an i.v. dose of 50 mg/kg to rats. The data set is classed as functional. The note with it: route intravenous.
For data set [5], the target named is Adenylate cyclase. In words: In vitro inhibitory activity against glucagon induced monkey adenylate cyclase. The data set is classed as protein assay, Cercopithecidae.

Chain of Glucagon receptor (P47871 whole entry): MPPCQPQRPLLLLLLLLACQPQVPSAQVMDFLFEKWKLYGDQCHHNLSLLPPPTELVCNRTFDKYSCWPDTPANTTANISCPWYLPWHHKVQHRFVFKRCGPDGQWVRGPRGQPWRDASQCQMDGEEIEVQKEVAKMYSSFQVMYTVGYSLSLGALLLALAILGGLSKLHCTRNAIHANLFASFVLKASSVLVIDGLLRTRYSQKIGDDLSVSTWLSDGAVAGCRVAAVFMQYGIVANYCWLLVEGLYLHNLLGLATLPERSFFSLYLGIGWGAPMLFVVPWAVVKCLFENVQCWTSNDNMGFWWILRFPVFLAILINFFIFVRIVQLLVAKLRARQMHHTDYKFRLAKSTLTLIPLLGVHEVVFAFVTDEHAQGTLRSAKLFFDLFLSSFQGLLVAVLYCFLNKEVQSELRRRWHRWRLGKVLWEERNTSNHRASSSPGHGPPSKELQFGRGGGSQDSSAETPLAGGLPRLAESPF

Turning to `CCCCCCC(Cc1ccc(C(=O)NCCC(=O)O)cc1)C(=O)Nc1ccc(-c2cc3ccccc3o2)cc1` (stereo not given), the values for the Ki in data set [1] and in data set [2] were 6 nM and 20 nM, respectively.

`CC(C)(C)c1ccc(C(Cc2ccc(C(=O)NCCC(=O)O)cc2)C(=O)Nc2ccc(-c3cc4ccccc4o3)cc2)cc1` (stereo not given): the results for the Ki in data set [1], in data set [2] and in data set [5] were 4 nM, 29 nM and 69 nM, respectively. For the same compound, the bioavailability in data set [3] is below 5%. For the same compound, the Reduction in data set [4] is listed as 50%.

On to `CC(C)(C)c1ccc(C(Oc2ccc(C(=O)NCC(F)C(=O)O)cc2)C(=O)Nc2ccc(-c3ccccc3)cc2)cc1` (stereo not given), for which the results for the Ki in data set [1] and in data set [2] were 26 nM and above 2000 nM, respectively.

Take `CCCCCCC(Oc1ccc(C(=O)NCCC(=O)O)cc1)C(=O)Nc1ccc(-c2cc3ccccc3o2)cc1` (stereo not given): the Ki in data set [1] amounted to 3 nM; in data set [2], 17 nM.

For `CC(C)(C)c1ccc(C(Cc2ccc(C(=O)NCCC(=O)O)cc2)C(=O)Nc2cnc3ccccc3c2)cc1` (stereo not given), the Ki in data set [1] came to 11 nM; in data set [2] it was 610 nM.

Regarding `CC(C)(C)c1ccc(C(Cc2ccc(C(=O)NCCC(=O)O)cc2)C(=O)Nc2ccc(-c3ccc(Cl)cc3Cl)cc2)cc1` (stereo not given), the figures for the Ki in data set [1] and in data set [2] were 6 nM and 33 nM, respectively.

In the case of `CC(C)(C)c1ccc(C(Cc2ccc(C(=O)NCCC(=O)O)cc2)C(=O)Nc2ccc(OC(F)(F)F)cc2)cc1` (stereo not given), the values for the Ki in data set [1] and in data set [2] were 51 nM and 110 nM, respectively.

`CC(C)(C)c1ccc(C(Oc2ccc(C(=O)NCC(O)C(=O)O)cc2)C(=O)Nc2ccc(-c3ccccc3)cc2)cc1` (stereo not given): the Ki in data set [1] was 112 nM; in data set [2], above 2000 nM.

As to `CC(C)(C)[C@H]1CC[C@H](N(Cc2ccc(C(=O)NCCC(=O)O)cc2)C(=O)Nc2ccc(OC(F)(F)F)cc2)CC1`, the Ki was found to be 63 nM in data set [1] and 254 nM in data set [2].

Turning to `CC(C)(C)c1ccc(C(Cc2ccc(C(=O)NCCC(=O)O)cc2)C(=O)Nc2ccc(COC(F)(F)F)cc2)cc1` (stereo not given), the Ki in data set [1] is 5000 nM; in data set [2] it was above 2000 nM.

For the compound `CCc1cccc(NC(=O)C(Cc2ccc(C(=O)NCCC(=O)O)cc2)c2ccc(C(C)(C)C)cc2)c1` (stereo not given), the Ki in data set [1] was 80 nM; in data set [2], above 2000 nM.

In the case of `CCc1ccc(NC(=O)C(Cc2ccc(C(=O)NCCC(=O)O)cc2)c2ccc(C(C)(C)C)cc2)cc1` (stereo not given), the Ki in data set [1] is 26 nM; in data set [2] it was above 2000 nM.

With `Cc1ccc(N2CCN(C(=O)C(Cc3ccc(C(=O)NCCC(=O)O)cc3)c3ccc(C(C)(C)C)cc3)CC2)cc1` (stereo not given), the Ki in data set [1] is 400 nM; in data set [2], above 2000 nM.

For the compound `CC(C)(C)c1ccc(C(Cc2ccc(C(=O)NCCC(=O)O)cc2)C(=O)Nc2ccc(-c3ccccc3)cc2)cc1` (stereo not given), the Ki was found to be 11 nM in data set [1] and 300 nM in data set [2].

Consider `CC(C)(C)c1ccc(C(Cc2ccc(C(=O)NCCC(=O)O)cc2)C(=O)Nc2ccc(N3CCCCC3)cc2)cc1` (stereo not given), for which the figures for the Ki in data set [1] and in data set [2] were 73 nM and above 2000 nM, respectively.

Regarding `CCN1CCN(C(=O)C(Cc2ccc(C(=O)NCCC(=O)O)cc2)c2ccc(C(C)(C)C)cc2)CC1` (stereo not given), the Ki is above 5000 nM in data set [1] and above 2000 nM in data set [2].

Turning to `CC(C)(C)c1ccc(C(Oc2ccc(C(=O)NCCC(=O)O)cc2)C(=O)Nc2ccc(-c3ccccc3)cc2)cc1` (stereo not given), the results for the Ki in data set [1] and in data set [2] were 9 nM and 144 nM, respectively.

Turning to `CC(C)(C)c1ccc(C(Oc2ccc(C(=O)Nc3nn[nH]n3)cc2)C(=O)Nc2ccc(-c3ccccc3)cc2)cc1` (stereo not given), the Ki in data set [1] amounted to 66 nM; in data set [2] it was 317 nM.

Consider `CC(C)(C)c1ccc(C(Cc2ccc(C(=O)NCCC(=O)O)cc2)C(=O)Nc2ccc(CO)cc2)cc1` (stereo not given), for which the results for the Ki in data set [1] and in data set [2] were 29 nM and 1000 nM, respectively.

Regarding `CC(C)(C)c1ccc(C(Cc2ccc(C(=O)NCCC(=O)O)cc2)C(=O)Nc2ccc(-n3cccn3)cc2)cc1` (stereo not given), the inhibition constant (Ki) in data set [1] was 70 nM; in data set [2] it was above 2000 nM.

Regarding `CCCCCCC(Oc1ccc(C(=O)NCCC(=O)O)cc1)C(=O)Nc1ccc(-c2ccc(Cl)cc2Cl)cc1` (stereo not given), the Ki in data set [1] came out at 6 nM; in data set [2], 14 nM.
